The record followed here is patent publication US10995101B2, “2-oxo-thiazole derivatives as A2A inhibitors and compounds for use in the treatment of cancers” (iTeos Therapeutics SA, priority 2017, dated 2021).

Values joined by “and” are separate entries in the source; they are usually repeats but may differ in a detail not shown here. Identical values can stand only once. Like-named read-outs stand apart in the source and are kept apart here.

Data set [1] addresses T1, A2A receptor (Homo sapiens, UniProt P29274). The data set can be described thus: Inhibition of cAMP production in HEK cells. It counts as cell-based. The following applies: HEK-293 cells with A2A receptor.
Data set [2] in a line: Concentration in brain and cerebrospinal fluid compared to plasma. It counts as in vivo, mice. The conditions noted are these: for concentration at 0.5 h / Kp at 0.5 h / plasma concentration at 0.5 h: female, Balb-c, mouse, po; for plasma concentration at 0.5 h: Plasma Concentration (ng/mL). How it is done:
7-9 weeks old female Balb-c mice (obtained from SLAC Laboratory Animal Co. Ltd., Shanghai, China or SIPPR-B&K Laboratory Animal Co. Ltd., Shanghai, China) were dosed orally at a dose of 10 mg/kg, as a 1.00 mg/mL suspension in 10% DMSO+10% solutol+80% water, adjusted to pH 3-4 (homogenous opaque suspension).
Animals were fasted at least 12 hours prior to the administration. All animals had access to Certified Rodent Diet (Catalog # M01-F, SLAC Laboratory Animal Cl. Ltd., Shanghai, China) ad libitum 4 hours post dosing. Serial bleeding (about 30 μL blood per time point) were performed from submadibular or saphenous vein. Those samples were transferred into prechilled microcentrifuge tubes containing 2 μL of K2EDTA (0.5M) as anti-coagulant and placed on wet ice for further treatment. Immediately after blood collection, the whole brain was harvested immediately at the designed time points. At selected timepoints post-dose, CSF was collected from cisterna magna.
Blood samples were processed for plasma by centrifugation at approximately 4° C., 3000 g 15 min within half an hour of collection. Plasma samples were stored in polypropylene tubes, quick frozen over dry ice and kept at −70° C. until LC/MS/MS analysis. Brain samples were weighed, rinsed in cold distilled water to remove blood, and homogenized using pre-cooled water at the ratio of 1:4 (1 g brain used 4 mL water). And the brain homogenization was kept at −70° C. until LC/MSMS analysis. CSF was quick frozen over dry ice and kept at −70° C. until LC/MS/MS analysis.

Data set [3] can be described thus: in vitro. The following applies: human, Caco-2, pH 7.4.
In data set [4] the target is T1, A2A receptor. The data set can be described thus: Human IL-2 T cell assay (restoration of IL-2 production in CGS-21680-treated CD3+ T cells). It counts as cell-based. Set-up: endogenous in cells; host or cells: human CD3+ T cells isolated from venous blood of healthy volunteers. The following applies: restoration of IL-2 production, human CD3+ T cells, anti-CD3/CD28 beads, 72 hours. An excerpt:
When T-cells are activated, they produce pro-inflammatory cytokines. When the A2A receptor is activated in T cells, the amount of cytokines produced in response to stimulation of T-cells is reduced.
Venous blood from healthy volunteers, all of whom signed an informed consent approved by the Ethics Committee (FOR-UIC-BV-050-01-01 ICF_HBS_HD Version 5.0), was obtained via ImmuneHealth (Centre Hospitalier Universitaire Tivoli, La Louviere, Belgium). Mononuclear cells were collected by density gradient centrifugation, using SepMate-50 tubes (StemCell Technologies, Grenoble, France) and Lymphoprep (Axis-shield, Oslo, Norway) according to the manufacturer's instructions. CD3+ T cells were isolated by immunomagnetic negative selection, using the EasySep Human T Cell Isolation Kit (StemCell Technologies) as per manufacturer's instructions. CD3+ T cells were stored in heat inactivated foetal bovine serum (hiFBS; Gibco, ThermoFisher Scientific, Merelbeke, Belgium) containing 10% DMSO in liquid nitrogen.
Human purified CD3+ T cells were thawed and washed twice with RPMI1640 medium (with UltraGlutamine; Lonza, Verviers, Belgium) supplemented with 1× non-essential amino acids (Lonza), 2% Pen/Strep (Lonza) and 1 mM Sodium Pyruvate (Gibco) (complete media), containing 10% hiFBS. The cells were suspended either in complete media containing 20% hiFBS or in 100% heat inactivated human serum (hiHS; Sigma-Aldrich, Diegem, Belgium). Cells were activated by adding anti-CD3 and anti-CD28 coated microbeads (Dynabeads human T-activator CD3/CD28; Life Technologies, Paisley, UK), suspended either in complete media containing 20% hiFBS or in 100% hiHS. […] Serial dilutions of the compounds of the present invention were prepared and added to the wells. The cells were placed in a 37° C. humidified tissue culture incubator with 5% CO2 for 72 hours. After 72 hours, supernatants were sampled and IL-2 was quantified using the IL-2 (human) AlphaLISA Biotin-Free Detection Kit (AL333F; Perkin-Elmer, Zaventem, Belgium), according to the manufacturer's instructions.

Where [5] appears, read: individual mice, PO 10 mg/kg, 0.500 h, 10 mg/kg.

T1 sequence (P29274 whole entry): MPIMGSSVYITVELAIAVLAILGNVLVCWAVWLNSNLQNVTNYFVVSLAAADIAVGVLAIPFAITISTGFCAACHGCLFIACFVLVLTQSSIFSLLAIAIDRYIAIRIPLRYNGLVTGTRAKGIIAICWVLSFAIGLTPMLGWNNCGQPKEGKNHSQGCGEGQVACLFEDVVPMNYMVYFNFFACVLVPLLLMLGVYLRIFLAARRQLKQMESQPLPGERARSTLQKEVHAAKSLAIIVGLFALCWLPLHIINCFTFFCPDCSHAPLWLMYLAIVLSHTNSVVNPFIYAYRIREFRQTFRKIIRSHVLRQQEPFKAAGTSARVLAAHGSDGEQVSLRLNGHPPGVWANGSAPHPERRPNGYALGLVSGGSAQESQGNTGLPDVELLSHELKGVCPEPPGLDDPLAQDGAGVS

In the case of `NC(=O)COc1cc(N2CCN(CCn3c(=O)sc4c3nc(N)n3nc(-c5ccco5)nc43)CC2)c(F)cc1F` [Compound 4, 2-(5-(4-(2-(5-amino-8-(furan-2-yl)-2-oxothiazolo[5,4-e][1,2,4]triazolo [1,5-c]pyrimidin-3(2H)-yl)ethyl)piperazin-1-yl)-2,4-difluorophenoxy)acetamide], the half-inhibitory concentration (IC50) came to 0.5 nM in data set [1] (IC50 (nM) (3 nM NECA as agonist, 0.1% BSA), 3 nM NECA as agonist, 0.1% BSA); 2 nM in data set [1] (IC50 (nM) (5 nM NECA as agonist, 2% HSA), 5 nM NECA as agonist, 2% HSA); 49 nM in data set [1] (IC50 (nM) (5 μM Adenosine as agonist, 2.0% HSA), 5 μM Adenosine as agonist, 2.0% HSA); 0.3 nM in data set [4] (IC50 (nM) (500 nM CGS-21680 as agonist, 10% FBS), 500 nM CGS-21680, 10% FBS); 63 nM in data set [4] (IC50 (nM) (5000 nM CGS-21680 as agonist, 50% HSA), 5000 nM CGS-21680, 50% HSA). Also, the concentration at 0.5 h was less than 3 ng/mL in data set [2] (CSF, 10 mg/kg, individual mice, PO 10 mg/kg, 0.500 h, read-out: CSF Concentration); less than 3 ng/mL in data set [2] (CSF, 10 mg/kg, mean of 3 mice, PO 10 mg/kg, 0.500 h, read-out: CSF Concentration (ng/mL), Mean); less than 15 ng/g in data set [2] (brain, 10 mg/kg, individual mice, PO 10 mg/kg, 0.500 h, read-out: Brain Concentration); less than 16 ng/g in data set [2] (brain, 10 mg/kg, mean of 3 mice, PO 10 mg/kg, 0.500 h, read-out: Brain Concentration (ng/g), Mean). Also, the Kp at 0.5 h is less than 0.005 in data set [2] (CSF, 10 mg/kg, individual mice, PO 10 mg/kg, 0.500 h, read-out: CSF/Plasma Ratio); less than 0.004 in data set [2] (CSF, 10 mg/kg, mean of 3 mice, PO 10 mg/kg, 0.500 h, read-out: CSF/Plasma Ratio, Mean); less than 0.026 in data set [2] (brain, 10 mg/kg, individual mice, PO 10 mg/kg, 0.500 h, read-out: Brain/Plasma Ratio); less than 0.021 in data set [2] (brain, 10 mg/kg, mean of 3 mice, PO 10 mg/kg, 0.500 h, read-out: Brain/Plasma Ratio, Mean). Besides, the plasma concentration at 0.5 h was determined as 779 ng/mL in data set [2] (10 mg/kg, Mean, mean of 3 mice, PO 10 mg/kg, 0.500 h) and 576 ng/mL in data set [2] (10 mg/kg, individual mice, PO 10 mg/kg, 0.500 h, female Balb-c mice). Moreover, the “CSF Concentration” value in data set [2] (individual mice, PO 10 mg/kg, 0.500 h) is on record as less than 3 ng/mL. For the same compound, the “Plasma Concentration” value in data set [2] (individual mice, PO 10 mg/kg, 0.500 h, female Balb-c mice, 10 mg/kg) was 995 ng/mL and 765 ng/mL. Further, the “Brain Concentration” value in data set [2] (setting [5]) was 16.9 ng/g and <15 ng/g. For the same compound, in data set [2] (setting [5]), the “Brain/Plasma Ratio” value was 0.0169 and <0.020. The “CSF/Plasma Ratio” value in data set [2] (setting [5]) was <0.003 and <0.004. The “quantity found in brain or CSF” value in data set [2] (mice, oral 10 mg/kg) was “no measurable quantity”. The efflux ratio at 120 min, 2 μM in data set [3] was 123.

One may read the IC50 as the concentration that inhibits the measured activity by half. A low value points to higher potency. Broadly, the efflux ratio is the permeability from basolateral to apical divided by that in the opposite direction, in the common usage.
